Earlier results on one molecule are cited in patent US9597377B2, “Stable formulations of purified proteins” (MOUNT SINAI SCHOOL OF MEDICINE OF NEW YORK UNIVERSITY, priority 2003, dated 2017).

The structures appear in SMILES notation. Numbering of substitutions follows the chain as printed.

Data set [1] has as its system lymphoblasts established from Fabry patients with R301Q or Q279E mutations. The following applies: cited from earlier work.
For a further data set, the target named is T1, mutant (R301Q) α-Gal A (Homo sapiens, UniProt P06280, R301Q).
T1 construct: host or cells: transgenic mice overexpressing the mutant enzyme; activity measured in major organs
T1 sequence (P06280 32-429 R301Q): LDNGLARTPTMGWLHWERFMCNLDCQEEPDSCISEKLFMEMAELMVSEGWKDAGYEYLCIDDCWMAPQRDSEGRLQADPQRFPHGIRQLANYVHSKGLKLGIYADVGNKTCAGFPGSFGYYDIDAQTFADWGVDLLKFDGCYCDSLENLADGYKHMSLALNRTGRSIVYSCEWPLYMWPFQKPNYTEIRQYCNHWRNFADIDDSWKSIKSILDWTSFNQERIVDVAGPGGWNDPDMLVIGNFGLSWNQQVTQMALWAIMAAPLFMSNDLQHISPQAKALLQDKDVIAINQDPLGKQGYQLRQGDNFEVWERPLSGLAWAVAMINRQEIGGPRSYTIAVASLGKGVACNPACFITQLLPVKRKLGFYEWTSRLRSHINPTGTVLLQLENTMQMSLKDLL
The following applies: oral administration, transgenic mice overexpressing mutant (R301Q) α-Gal A; cited from earlier work.

The target of a further data set is T2, mutant α-Gal A (R301Q) (Homo sapiens, UniProt P06280, R301Q).
T2 sequence (P06280 32-429 R301Q): T1 sequence (P06280 32-429 R301Q)
The settings on record: neutral pH; cited from earlier work.

Data set [2] addresses T3, wild-type α-Gal A in COS-7 cells (Homo sapiens, UniProt P06280).
T3 construct: expressed in transfected cells; host or cells: COS-7 cells
T3 sequence (P06280 32-429): T1 sequence (P06280 32-429 R301Q) with Q270R
The following applies: COS-7 cells transfected with vector coding wild-type α-Gal A; cited from earlier work.

In the case of `OC[C@H]1NC[C@H](O)[C@@H](O)[C@H]1O` [DGJ, 1-deoxygalactonojirimycin], in data set [1], the “mutant enzyme activity in lymphoblasts” value is on record as “enhanced the mutant enzyme activity”. For the same molecule, the “enzyme activity in major organs” value at mutant (R301Q) α-Gal A was “substantially elevated the enzyme activity”. For the same molecule, the “in vitro stability of mutant α-Gal A (R301Q)” value at mutant α-Gal A (R301Q) is “effectively increased in vitro stability”. In addition, in data set [2], the “amount and activity of wild-type α-Gal A” value was “increase the amount and activity”.
